Activity calls are given as the source filed them. The rule behind the calls is not given here.

Data set [1] deals with MDA-MB-231. As to the kind of experiment: Antiproliferative activity against human MDA-MB-231 cells assessed as reduction in cell viability incubated for 48 hrs by MTT assay. The data set is classed as functional, cell-based. Conditions: MDA-MB-231, 48 h.
The test system of data set [2] is T47D. The data set is described as follows: Antiproliferative activity against human T47D cells assessed as reduction in cell viability incubated for 48 hrs by MTT assay. In kind it is functional, cell-based. In general terms: Tetrazolium dyes change colour on reduction, which living cells bring about.
Data set [3] deals with MCF7. The data set is described as follows: Antiproliferative activity against human MCF-7 cells assessed as reduction in cell viability incubated for 48 hrs by MTT assay. The data set is classed as functional, cell-based. Conditions: MCF7, 48 h.
Data set [4] relates to A549. As to the kind of experiment: Antiproliferative activity against human A549 cells assessed as reduction in cell viability incubated for 48 hrs by MTT assay. The data set is classed as functional, cell-based. Particulars: A549, 48 h.
The subject of data set [5] is HT-29. As to the kind of experiment: Antiproliferative activity against human HT-29 cells assessed as reduction in cell viability incubated for 48 hrs by MTT assay. The data set is classed as functional, cell-based. Particulars: HT-29, 48 h.
The nature of data set [6]: Cytotoxicity against human peripheral blood mononuclear cells assessed as reduction in cell survival at 10 uM incubated for 48 hrs by MTT assay. In kind it is cell-based. Particulars: pbmc.
For data set [7], the system named is HBL-100. As to the kind of experiment: Cytotoxicity against human HBL-100 cells assessed as disruption of cell morphology at 10 uM. Particulars: hbl-100, 10 µM. The data set is classed as cell-based.
Data set [8] relates to MDA-MB-231. As to the kind of experiment: Induction of reactive oxygen species generation in human MDA-MB-231 cells assessed as increase in intracellular ROS level at sub-IC50 concentration incubated for 48 hrs by H2DCFDA staining based flow cytometry. In kind it is functional, cell-based. A general note: In flow cytometry, cells or beads pass a laser one at a time.
Data set [9] has as its system MDA-MB-231. The data set is described as follows: Induction of mitochondrial membrane potential depolarization in human MDA-MB-231 cells assessed as […] fluorescence to green fluorescence ratio at sub-IC50 concentration incubated for 48 hrs by JC1 staining based flow cytometry. The data set is classed as functional, cell-based.
Data set [10] has as its system HBL-100. The data set is described as follows: Cytotoxicity against human HBL-100 cells assessed as reduction in cell survival at 10 uM incubated for 48 hrs by MTT assay. In kind it is cell-based. Conditions: hbl-100, 48 h.
The target of data set [11] is Epidermal growth factor receptor (Homo sapiens, UniProt P00533). As to the kind of experiment: Inhibition of EGFR (unknown origin) using Tyrosine 4 peptide and ATP as substrate incubated for 1 hr by Z'-lyte kinase assay based […] method.
Chain of Epidermal growth factor receptor (P00533 whole entry): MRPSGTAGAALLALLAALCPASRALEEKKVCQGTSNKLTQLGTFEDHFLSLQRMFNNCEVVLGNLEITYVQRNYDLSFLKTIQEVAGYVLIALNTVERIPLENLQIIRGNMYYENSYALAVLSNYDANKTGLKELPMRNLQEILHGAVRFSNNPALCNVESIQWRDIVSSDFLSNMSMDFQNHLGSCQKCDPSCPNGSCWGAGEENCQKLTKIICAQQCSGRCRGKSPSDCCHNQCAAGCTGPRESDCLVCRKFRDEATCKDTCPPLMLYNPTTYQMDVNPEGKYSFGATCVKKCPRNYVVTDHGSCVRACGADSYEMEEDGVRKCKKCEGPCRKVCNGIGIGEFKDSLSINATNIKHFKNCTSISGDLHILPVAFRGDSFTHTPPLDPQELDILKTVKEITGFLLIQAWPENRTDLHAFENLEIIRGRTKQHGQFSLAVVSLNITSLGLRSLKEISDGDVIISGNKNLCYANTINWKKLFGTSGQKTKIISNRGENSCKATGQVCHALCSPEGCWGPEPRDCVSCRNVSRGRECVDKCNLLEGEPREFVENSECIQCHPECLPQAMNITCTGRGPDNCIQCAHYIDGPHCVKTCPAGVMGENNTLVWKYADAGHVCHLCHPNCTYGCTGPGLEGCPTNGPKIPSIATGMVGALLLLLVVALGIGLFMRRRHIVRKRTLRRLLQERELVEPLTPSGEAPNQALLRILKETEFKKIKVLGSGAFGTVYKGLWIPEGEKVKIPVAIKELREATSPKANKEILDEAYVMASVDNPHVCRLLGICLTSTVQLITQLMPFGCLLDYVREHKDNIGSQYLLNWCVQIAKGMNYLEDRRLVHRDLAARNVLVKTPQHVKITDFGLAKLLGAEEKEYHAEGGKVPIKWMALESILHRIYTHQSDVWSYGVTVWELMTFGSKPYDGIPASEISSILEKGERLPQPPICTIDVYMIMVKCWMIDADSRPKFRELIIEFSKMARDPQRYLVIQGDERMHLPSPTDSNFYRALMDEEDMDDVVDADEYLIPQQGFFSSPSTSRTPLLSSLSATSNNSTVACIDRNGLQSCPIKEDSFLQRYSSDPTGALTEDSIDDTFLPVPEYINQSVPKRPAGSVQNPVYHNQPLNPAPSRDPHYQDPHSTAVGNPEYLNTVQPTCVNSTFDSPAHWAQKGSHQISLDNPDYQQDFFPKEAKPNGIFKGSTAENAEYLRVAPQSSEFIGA

Regarding `COc1cc(/C=N/c2c(C#N)ncn2-c2ccc(F)cc2)cc(OC)c1OC`, the IC50 – broadly, the midpoint of a concentration-inhibition curve – in data set [1] was 18.7 µM; in data set [2], 13.7 µM; in data set [3], 8.32 µM; in data set [4], 9.88 µM; in [5] it was 13.7 µM.

Take `COc1ccc(/C=N/c2c(C#N)ncn2Cc2ccc(F)cc2)cc1O`: the IC50 in [1] amounted to 2.67 µM; in data set [2] it was 6.14 µM; in data set [3], 4.53 µM; in [4] it was 1.32 µM; in data set [5], 6.14 µM. Besides, the Activity entry was “Non-Toxic” in data set [6] and “Toxic” in data set [7].

For `COc1cc(/C=N/c2c(C#N)ncn2-c2ccc(F)cc2)ccc1O`, the half-inhibitory concentration (IC50) amounted to 13.6 µM in data set [1]; 20.1 µM in data set [2]; 9.99 µM in data set [3]; 13.6 µM in data set [4]; 20.1 µM in data set [5].

Turning to `COc1cc(C2N=C(C(N)=O)c3ncn(-c4ccc(F)cc4)c3N2)cc(OC)c1OC` (centres undefined), the IC50 in [1] came out at 8.67 µM; in data set [2], 10.7 µM; in [3], 7.46 µM; in data set [4], 2.29 µM; in data set [5], 2.37 µM. For the same compound, in data set [6], the Activity entry was “Toxic”.

On to `CC(C)c1ccc(/C=N/c2c(C#N)ncn2-c2ccc(F)cc2)cc1`, for which the half-maximal inhibitory concentration (IC50) in data set [1] was 20.4 µM; in data set [2] it was above 25 µM; in data set [3], 9.87 µM; in [4], 14.7 µM; in data set [5], above 25 µM.

As to `COc1ccc(OC)c(/C=N/c2c(C#N)ncn2Cc2ccc(F)cc2)c1`, the 50% inhibitory concentration (IC50) in [1] is 17.6 µM; in data set [2], 22.4 µM; in [3] it was 10.9 µM; in data set [4], 13.1 µM; in data set [5], 22.4 µM.

On to `N#Cc1ncn(-c2ccc(F)cc2)c1/N=C/c1ccc(O)cc1`, for which the IC50 in [1] came to 16.3 µM; in [2], 20.4 µM; in data set [3], 11.5 µM; in data set [4], 16.3 µM; in data set [5], 20.4 µM.

On to `COc1ccc(/C=N/c2c(C#N)ncn2Cc2ccc(F)cc2)cc1`, for which the IC50 amounted to 2.87 µM in data set [1]; 9.19 µM in [2]; 3.87 µM in data set [3]; 4.62 µM in data set [4]; 9.19 µM in data set [5]. The Activity entry in data set [6] is on record as “Non-Toxic”; in [7], “Toxic”.

As to `N#Cc1ncn(-c2ccc(F)cc2)c1/N=C/c1ccc([N+](=O)[O-])cc1`, the IC50 in data set [1] amounted to 13.4 µM; in data set [2] it was 15.9 µM; in data set [3], 9.1 µM; in data set [4] it was 18.1 µM; in [5] it was 15.9 µM.

As for `COc1ccc(/C=N/c2c(C#N)ncn2-c2ccc(F)cc2)cc1`, the half-maximal inhibitory concentration (IC50) in data set [1] stood at 17.1 µM; in data set [2], 19.4 µM; in data set [3] it was 9.33 µM; in data set [4], 17.1 µM; in data set [5], 19.4 µM.

In the case of `COc1ccc(C2N=C(C(N)=O)c3ncn(-c4ccc(N5CCN(C)CC5)c([N+](=O)[O-])c4)c3N2)cc1OC` (centres undefined), the result in data set [8] and in data set [9] was Active.

On to `N#Cc1ncn(-c2ccc(F)cc2)c1/N=C/c1cc([N+](=O)[O-])ccc1O`, for which the 50% inhibitory concentration (IC50) in data set [1] turned out to be 17.2 µM; in data set [2], 15.3 µM; in [3] it was 9.99 µM; in data set [4] it was 17.2 µM; in data set [5], 15.3 µM.

Take `COc1ccc(C2N=C(C(N)=O)c3ncn(-c4ccc(F)cc4)c3N2)cc1OC` (centres undefined): the IC50 stood at 6.76 µM in data set [1]; 9.96 µM in data set [2]; 5.71 µM in [3]; 2.29 µM in data set [4]; 3.29 µM in data set [5]; 0.617 µM in [11]. The Activity result in data set [6], in data set [10] and in data set [7] was “Non-Toxic” each time.

In the case of `COc1ccc(/C=N/c2c(C#N)ncn2-c2ccc(F)cc2)cc1OC`, the IC50 in data set [1] was 4.27 µM; in data set [2] it was 7.23 µM; in data set [3] it was 14.7 µM; in data set [4], 2.96 µM; in data set [5], 7.23 µM. Moreover, the Activity entry in data set [6] is given as “Toxic”.

Take `COc1ccc(/C=N/c2c(C#N)ncn2-c2ccc(F)cc2)cc1O`: the 50% inhibitory concentration (IC50) in data set [1] is 21.4 µM; in [2], 19.9 µM; in data set [3], 7.85 µM; in [4] it was above 25 µM; in data set [5], 19.9 µM.

Regarding `COc1ccc(/C=N/c2c(C#N)ncn2Cc2ccc(F)cc2)cc1OC`, the IC50 in [1] is 10.5 µM; in data set [2], 8.2 µM; in data set [3], 11.1 µM; in data set [4], 9.13 µM; in data set [5] it was 13.8 µM.

For `N#Cc1ncn(Cc2ccc(F)cc2)c1/N=C/c1ccc([N+](=O)[O-])cc1`, the concentration for half-maximal inhibition (IC50) is 3.44 µM in data set [1]; 5.72 µM in data set [2]; 10.6 µM in data set [3]; 2.02 µM in data set [4]; 5.72 µM in [5]. Also, the Activity entry in data set [6] was “Toxic”.

Consider `COc1cc(/C=N/c2c(C#N)ncn2Cc2ccc(F)cc2)cc(OC)c1OC`, for which the 50% inhibitory concentration (IC50) was found to be 2.87 µM in data set [1]; 17.5 µM in [2]; 9.04 µM in data set [3]; 9.71 µM in [4]; 16.5 µM in data set [5]. For the same compound, the Activity result in [6] was “Toxic”.

Turning to `COc1ccc(/C=N/c2c(C#N)ncn2Cc2ccc(F)cc2)c(OC)c1OC`, the IC50 in data set [1] is above 25 µM; in data set [2], above 25 µM; in [3], 12.6 µM; in data set [4], 24.3 µM; in data set [5], above 25 µM.

With `COc1ccc(OC)c(/C=N/c2c(C#N)ncn2-c2ccc(F)cc2)c1`, the IC50 in data set [1] was 12.3 µM; in [2], 16.3 µM; in [3], 7.09 µM; in data set [4] it was 9.28 µM; in data set [5] it was 16.3 µM.

As for `COc1cc(/C=N/c2c(C#N)ncn2Cc2ccc(F)cc2)ccc1O`, the IC50 was 16.1 µM in data set [1]; 21.5 µM in [2]; 11.3 µM in data set [3]; 10.9 µM in data set [4]; 21.5 µM in data set [5].

(Values after ChEMBL document CHEMBL4699428, “Anticancer potential of some imidazole and fused imidazole derivatives: exploring the mechanism via epidermal growth factor receptor (EGFR) inhibition” (RSC Med Chem, 2020).)
